Like-named read-outs stand apart in the source and are kept apart here.
Columns and labels:
[1] = target: T1, RGS7/Gβ5/R7BP complex (Homo sapiens, UniProt P49802); experiment: TR-FRET assay of RGS7/Gβ5 interaction with R7BP, inhibitors mode; format: binding
T1 sequence (P49802 1-495): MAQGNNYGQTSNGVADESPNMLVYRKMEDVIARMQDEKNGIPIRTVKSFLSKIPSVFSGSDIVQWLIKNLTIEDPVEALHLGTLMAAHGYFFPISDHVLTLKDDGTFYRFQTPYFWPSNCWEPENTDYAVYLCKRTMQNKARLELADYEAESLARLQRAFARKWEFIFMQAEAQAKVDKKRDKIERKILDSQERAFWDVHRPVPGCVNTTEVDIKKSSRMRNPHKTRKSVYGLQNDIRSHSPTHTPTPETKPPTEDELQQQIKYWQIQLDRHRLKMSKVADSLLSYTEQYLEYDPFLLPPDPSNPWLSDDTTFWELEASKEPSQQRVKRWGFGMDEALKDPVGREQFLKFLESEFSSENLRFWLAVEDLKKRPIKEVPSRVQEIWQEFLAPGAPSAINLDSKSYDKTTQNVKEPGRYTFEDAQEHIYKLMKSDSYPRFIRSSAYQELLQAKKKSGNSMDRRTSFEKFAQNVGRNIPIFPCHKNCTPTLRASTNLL
T1 sequence (O14775 43-395 partner limits assumed): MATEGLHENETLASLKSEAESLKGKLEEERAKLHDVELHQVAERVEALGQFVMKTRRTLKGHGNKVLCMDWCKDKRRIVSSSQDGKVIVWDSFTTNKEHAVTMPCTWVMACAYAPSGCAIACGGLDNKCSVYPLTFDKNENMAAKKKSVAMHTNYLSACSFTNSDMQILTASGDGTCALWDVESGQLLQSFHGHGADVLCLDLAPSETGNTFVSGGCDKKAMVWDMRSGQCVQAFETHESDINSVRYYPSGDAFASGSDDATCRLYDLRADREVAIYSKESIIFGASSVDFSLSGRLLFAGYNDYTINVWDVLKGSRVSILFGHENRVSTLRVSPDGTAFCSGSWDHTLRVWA

[2] = target: T1, RGS7/Gβ5/R7BP complex; experiment: TR-FRET assay of RGS7/Gβ5 interaction with R7BP, activators mode; format: binding

Structure (SMILES): O=C1CCCN1C(=S)C(=S)N1CCCC1=O [SR-01000319258–1, 1-[2-(2-oxopyrrolidin-1-yl)-2-sulfanylideneethanethioyl]pyrrolidin-2-one]
- IC50 [1]: 173 nM
- maximum inhibition ([1]; tertiary screening, first HTS campaign, concentration response curves): 54.2 ± 0.84%

Structure (SMILES): NCCc1cc(O)c(O)cc1O [6-hydroxydopamine]
- IC50 ([1]; IC50, inhibition of complex formation, initial dose response studies): 7650 ± 3740 nM

Structure (SMILES): NC(=O)c1cc([N+](=O)[O-])cc([N+](=O)[O-])c1 [nitromide]
- EC50 [2]: 760 ± 100 nM

From publication PMC8552049 (SLAS discovery : advancing life sciences R & D, 2021)
